Results from patent US10202395B2, “Macrocycle with repeating triazole-carbazole units” (INDIANA UNIVERSITY RESEARCH & TECHNOLOGY CORPORATION, priority 2015, dated 2019).
Where “and” joins values, the source holds several entries; their conditions need not be identical. Equal values may be shown once.

How the values were obtained:
[1] = Anion binding constants by UV-Vis titration, PF6^−; settings: 20% MeOH/CHCl3; for logβ2: 2:1 sandwich; for K2/K1: PF6^−, positive cooperativity
Method: (§1) FIG. 2B depicts an exemplary plot of anion binding constants obtained from equilibrium restricted factor analysis (D. A. Griend, D. K. Bediako, M. J. DeVries, N. A. DeJong, L. P. Heeringa, Inorg Chem 2008, 47, 656-662) of UV-Vis titration data (20% MeOH/CHCl3). Salts added as TBA^+ with exception of FeCl4^− added as the 1-ethyl-3-methylimidazolium salt.
(§2) The tricarb-anion stability constants were determined from UV-Vis titrations and evaluated using equilibrium restricted factor analysis (D. A. Griend, D. K. Bediako, M. J. DeVries, N. A. DeJong, L. P. Heeringa, Inorg Chem 2008, 47, 656-662) as implemented with Sivvu by employing the following equilibria: tricarb+X^− ? tricarb·X^−K1 (1) tricarb·X^−+tricarb ? tricarb2·X^−K2 (2) 2 tricarb+X^− ? tricarb2·X^−β2 (3)

[2] = Anion binding constants by UV-Vis titration, ClO4^−; settings: 20% MeOH/CHCl3; for logβ2: 2:1 sandwich; for K2/K1: ClO4^−, positive cooperativity
Method: as §1, §2

[3] = Anion binding constants by UV-Vis titration, ReO4^−; settings: 20% MeOH/CHCl3; for K2/K1: ReO4^−, positive cooperativity
Method: as §1, §2

[4] = Anion binding constants by UV-Vis titration, I^−; settings: 20% MeOH/CHCl3; for K2/K1: I^−, positive cooperativity
Method: as §1, §2

[5] = Solution phase self-association, variable concentration UV-Vis, isodesmic equal-K model; assay type: physicochemical
Source text: Solution phase self-association was examined using variable concentration ^1H NMR and UV-Vis spectra. All aromatic ^1H NMR peaks shift upfield (FIG. 3B) with concentration (10×10^−6 M−2×10^−3 M) consistent with p stacking (R. B. Martin, Chem. Rev. 1996, 96, 3043-3064). UV-Vis spectroscopy was used to quantify the extent of self-association (S. A. Jenekhe, L. Lu, M. M. Alam, Macromolecules 2001, 34, 7315-7324) (0.7 to 24×10^−6 M, FIG. 3C). An isodesmic equal-K model (R. B. Martin, Chem. Rev. 1996, 96, 3043-3064) was used to quantify self-association (KE) to give KE=300,000±10,000 M^−1 in 20% MeOH/CHCl3 (ε=10.4). The self-association is high relative to other macrocycles (W. Zhang, J. S. Moore, Angew. Chem. Int. Ed. 2006, 45, 4416-4439) and believed to be driven by solvophobic effects and dipolar coupling. Consistent with dipolar coupling, use of pure CHCl3 with a lower polarity (ε=4.8), increases KE to 790,000±30,000 M^−1 (S.-L. Lee, Z. Yuan, L. Chen, K. S. Mali, K. Müllen, S. De Feyter, J Am. Chem. Soc. 2014, 136, 4117-4120; S.-L. Lee, Z. Yuan, L. Chen, K. S. Mali, K. Müllen, S. De Feyter, J. Am. Chem. Soc. 2014; P. Samori, N. Severin, C. D. Simpson, K. Müllen, J. P. Rabe, J. Am. Chem. Soc. 2002, 124, 9454-9457).

[6] = Cyclic voltammetry in solution; assay type: physicochemical; settings: 1×10^−3 M, 0.1 M tetrabutylammonium hexafluorophosphate, glassy carbon working electrode, chloroform, room temperature
Source text: FIG. 7 depicts a representative current-voltage response curve recorded using cyclic voltammetry of tricarb of Formula (IB) in solution. […] Conditions: [tricarb of Formula (IB)]=1×10^−3 M, 0.1 M tetrabutylammonium hexafluorophosphate, glassy carbon working electrode, platinum counter electrode, chloroform, room temperature, Ar degassed.

[7] = Anion binding constants by UV-Vis titration, FeCl4^−; settings: 20% MeOH/CHCl3; for K2/K1: FeCl4^−, positive cooperativity
Method: as §1, §2

[8] = Anion binding constants by UV-Vis titration, SbF6^−; settings: 20% MeOH/CHCl3; for logβ2: 2:1 sandwich; for K2/K1: SbF6^−, positive cooperativity
Method: as §1, §2

[9] = PF6^− as tetrabutylammonium salt
[10] = listed as tricarb of Formula (I)
[11] = ClO4^− as tetrabutylammonium salt
[12] = ReO4^− as tetrabutylammonium salt
[13] = FeCl4^− as 1-ethyl-3-methylimidazolium salt
[14] = SbF6^− as tetrabutylammonium salt

logK1 [1, 9]: 4.46 ± 0.01
logK2 [1, 9]: 6.94 ± 0.01
logβ2 ([1]; PF6^− as tetrabutylammonium salt, listed as Tricarb of Formula (IB)): 11.4
logβ2 ([1]; PF6^− as tetrabutylammonium salt, listed as tricarb): 11.40 ± 0.02
K2/K1 ([1]; listed as tricarb): 300 ± 60
K2/K1 [1, 10]: 300
logK1 [2, 11]: 4.04 ± 0.01
logK2 [2, 11]: 5.87 ± 0.01
logβ2 ([2]; ClO4^− as tetrabutylammonium salt, listed as Tricarb of Formula (IB)): 10
logβ2 ([2]; ClO4^− as tetrabutylammonium salt, listed as tricarb): 10.04 ± 0.02
K2/K1 ([2]; listed as tricarb): 67 ± 3
K2/K1 [2, 10]: ~70
logK1 [3, 12]: 3.8 ± 0.1
logK2 [3, 12]: 6.2 ± 0.1
logβ2 ([3]; ReO4^− as tetrabutylammonium salt, 2:1 sandwich): 10.0 ± 0.2
K2/K1 ([3]; listed as tricarb): 200 ± 100
K2/K1 [3, 10]: 200
logβ2 ([4]; I^− as tetrabutylammonium salt, 2:1 sandwich): 9.3 ± 0.3
logK1 ([4]; I^− as tetrabutylammonium salt, tricarb+X^− = tricarb·X^−): 4.3 ± 0.1
logK2 ([4]; I^− as tetrabutylammonium salt, tricarb·X^−+tricarb = tricarb2·X^−): 5.1 ± 0.2
K2/K1 ([4]; listed as tricarb): 6 ± 3
K2/K1 [4, 10]: ~5
self-association (KE) ([5]; 20% MeOH/CHCl3 (ε=10.4), 0.7 to 24×10^−6 M): 300,000±10,000 M^−1
self-association (KE) ([5]; pure CHCl3 (ε=4.8)): 790,000±30,000 M^−1
half-wave oxidation potential E1/2 [6]: 0.8 V vs Ag/AgCl
peak potentials [6]: 0.95 V and 0.65 V
logK1 [7, 13]: 4.0 ± 0.1
logK2 [7, 13]: 3.7 ± 0.2
logβ2 ([7]; FeCl4^− as 1-ethyl-3-methylimidazolium salt, 2:1 sandwich): 7.7 ± 0.3
K2/K1 ([7]; listed as tricarb): 5.2 ± 0.2
K2/K1 [7, 10]: ~5
logK1 [8, 14]: 5.2 ± 0.2
logK2 [8, 14]: 6.4 ± 0.2
logβ2 ([8]; SbF6^− as tetrabutylammonium salt, listed as Tricarb of Formula (IB)): 11.6
logβ2 ([8]; SbF6^− as tetrabutylammonium salt, listed as tricarb): 11.6 ± 0.4
K2/K1 ([8]; listed as tricarb): 30 ± 20
K2/K1 [8, 10]: ~30
SMILES: CCCCCCCCCCn1c2ccc3cc2c2cc(ccc21)n1cc(nn1)c1ccc2c(c1)c1cc(ccc1n2CCCCCCCCCC)n1cc(nn1)c1ccc2c(c1)c1cc(ccc1n2CCCCCCCCCC)n1cc3nn1 [tricarb of Formula (IB), tridecyl-tricarbazolo-triazolophane]
